In PubChem BioAssay AID1963841 (Molecular Pharmacology Branch, DTP, NCI, 2024):
pIC50: −log10 of the molar value. Where “and” joins values, the source holds several entries; their conditions need not be identical. Equal entries are not always repeated.

Tested on: 439559-082-T-J2-PDC spheroid viability
Assay: Anticancer human tumor 439559-082-T-J2-PDC patient-derived colon adenocarcinoma cell line growth inhibition [POLQ]
Details: spheroids with HUVEC and MSC; for viability, T/C: stronger effect = lower value; for pIC50: curve of compound
Protocol: Multicellular complex tumor spheroid response to Polymerase (POL) inhibitors (novobiocin, ART-558, RP6685) in combination with a variety of drugs and investigational agents in selected tumor cell lines
The POL inhibitors (novobiocin, ART-558, and RP6685) were evaluated both individually and in combination with standard of care and investigational anticancer small molecules within a complex spheroid model of solid tumors. . Complex spheroids include a stromal component modeled by human endothelial cells (HUVEC) and fibroblasts modeled by human mesenchymal stem cells (MSCs). The concentration ranges selected for each drug and investigational agent were based upon clinically achievable concentrations if the clinical Cmax of the agent was known.
Compounds. The drugs and investigational agents: novobiocin (NSC847541), ART-558 (NSC835418), RP-6685 (NSC848927), peposertib (NSC802822), ceralasertib (NSC780249), elimusertib (NSC800525), camonsertib (NSC841442), AZD-1390 (NSC803789), olaparib (NSC753686), talazoparib (NSC767125), rucaparib (NSC756644), sotorasib (NSC818433), MRTX-1133 (NSC836407), SN-38 (NSC673596), topotecan (NSC609699), epotoside (NSC141540), doxorubicin (NSC123127), gemcitabine (NSC613327), 5-fluorouracil (NSC19893), paclitaxel (NSC125973), vemurafenib (NSC761431), MSA-2 (NSC828583), SN-011 (NSC837082), adavosertib (NSC754352), prexasertib (NSC758257), carboplatin (NSC241240) and oxaliplatin (NSC266046), were obtained from the National Cancer Institute (NCI) Developmental Therapeutics Program Chemical Repository (21). The FDA-approved anticancer drug set is available from the Developmental Therapeutics Program at https://dtp.cancer.gov/organization/dscb/obtaining/. […] The stock solutions were prepared in dimethyl sulfoxide (DMSO, Sigma-Aldrich, St. Louis, MO, cat. D2650), except for the platinum compounds which were prepared in saline (Quality Biological, Gaithersburg, MD, cat. 114-055-101), at 800-fold the tested concentration and stored at -70 degrees C prior to their use. All drugs and investigational agents were tested over a range starting from a high concentration at or near the clinical Cmax and decreasing in half-log increments. If the clinical Cmax for an agent had not been determined, the highest concentration tested was 10 microM, except for SN-38, which was tested at a high concentration of 1 microM.
Cell Culture. All cells were maintained in an incubator at 37 degrees C and 5% CO2 with 95% humidity. The PDC lines were cultured according to standard operating procedures established by the NCI PDMR (https://pdmr.cancer.gov). Table 3 of the manuscript, lists the cell lines along with the number of the three cell types plated to form the mct-spheroids and media for tumor cell growth. After thawing, all PDC lines, except 997537-175-T-J1-PDC and 415267-285-R-J2-PDC, were cultured in Matrigel-coated flasks prepared with a working solution of 1X Ham's F-12 nutrient mix, without supplementation (Thermo Fisher Scientific, cat. 11765054), 100 U/mL penicillin-streptomycin (Thermo Fisher Scientific, cat. 15140122), and 2.5% Matrigel (Corning Inc., Corning, NY, cat. 354248) for the first three passages. The two PDC lines 997537-175-T-J1-PDC and 415267-285-R-J2-PDC were cultured on uncoated flasks. The 857933-349-R-J2-PDC line was cultured in 6C/Colon 1B media containing advanced DMEM/F-12 (Thermo Fisher Scientific, cat. 12634028), 10 mM HEPES (Thermo Fisher Scientific, cat. 15630080), 1X GlutaMAX supplement (Thermo Fisher Scientific, cat. 35050061), 0.1 mg/mL primocin (InvivoGen, San Diego, CA, cat. ant-pm-2), 10% defined fetal bovine serum, heat inactivated (HyClone Laboratories Inc., Logan, UT, cat. SH30070.03HI), 50% L-WRN conditioned media (ATCC, cat. CRL-3276), 1.25 mM N-Acetyl-L-cysteine (Sigma-Aldrich, cat. A9165), 10 mM nicotinamide (Sigma-Aldrich, cat. N0636), 1X B-27 supplement (Thermo Fisher Scientific, cat. 17504044), 1X N-2 supplement (Thermo Fisher Scientific, cat. […]
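Also: spheroids exposed to compounds for seven days before readout.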
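For viability, T/C in this document: 100% = DMSO vehicle control viability.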

Structure (SMILES)	viability, T/C (compound 3.16 µM)	pIC50	viability, T/C (compound 0.0316 µM)	viability, T/C (compound 0.1 µM)	viability, T/C (compound 0.316 µM)	viability, T/C (compound 1 µM)	viability, T/C (compound 10 µM)	viability, T/C (compound 0.00316 µM)	viability, T/C (compound 0.01 µM)
CC(C)n1c(=O)n(C)c2cnc3cc(F)c(-c4ccc(OCCCN5CCCCC5)nc4)cc3c21	116% and 127% and 102%	< 5.00							
CC1COCCN1c1cc(C2(S(C)(=N)=O)CC2)nc(-c2ccnc3[nH]ccc23)n1 (stereo not drawn)	94.9% and 97.8% and 85.5%	< 5.00	100% and 99.8% and 96.6%	98.7% and 94.7% and 99.4%	95.2% and 91.3% and 98.8%	96% and 88% and 91.1%	67.7% and 75.1% and 68.6%		
O=C(c1cc(Cc2n[nH]c(=O)c3ccccc23)ccc1F)N1CCN(C(=O)C2CC2)CC1		< 5.00	88.1% and 67.6% and 87.6%						
CCc1c2c(nc3ccc(O)cc13)-c1cc3c(c(=O)n1C2)COC(=O)[C@]3(O)CC		6.20 and < 6.00 and 6.43	71.9% and 75.1% and 71.4%	72.1% and 79.6% and 64.2%	63.3% and 81% and 57.8%	40.5% and 58.2% and 35.7%		95.8% and 83.5% and 94.6%	85% and 74.5% and 81%
CCc1cc2c(N3CCc4c(cc(Cn5ccnc5)cc4-c4cn(C)nc4C(F)(F)F)C3=O)cc(C)nc2c(OC)n1	99.1% and 101% and 92.2%	< 5.00	105% and 93.7% and 95.3%	94.8% and 96.5% and 90.4%	94.4% and 95.2% and 87.4%	103% and 91.7% and 94.3%	94.1% and 90.4% and 87.9%		
CCCS(=O)(=O)Nc1ccc(F)c(C(=O)c2c[nH]c3ncc(-c4ccc(Cl)cc4)cc23)c1F		< 5.00 and 5.11	97.4% and 77.9% and 99.4%		102% and 105% and 90%	103% and 87.8% and 100%			
C=CC(=O)N1CCN(c2nc(=O)n(-c3c(C)ccnc3C(C)C)c3nc(-c4c(O)cccc4F)c(F)cc23)C(C)C1 (stereo not drawn)	97.7% and 80.5% and 99.9%	< 5.00	93% and 88.6% and 99.7%	91.5% and 84.4% and 100%	95.6% and 90.7% and 99.1%	96.8% and 92.5% and 105%	98.6% and 103% and 108%		
COc1cc(C2c3cc4c(cc3C(OC3OC5COC(C)OC5C(O)C3O)C3COC(=O)C23)OCO4)cc(OC)c1O (stereo not drawn)	82.1% and 81.8% and 89.5%	< 5.00	92.4% and 99.3% and 94.1%	95.6% and 95.3% and 97.8%	92.7% and 82% and 98.2%	90.5% and 88.4% and 95.4%	73.7% and 72.7% and 70.3%		
